Test results taken from publication PMC9655119, “Sustained Activation of CLR/RAMP Receptors by Gel-Forming Agonists” (International Journal of Molecular Sciences, 2022).
Like-named read-outs stand apart in the source and are kept apart here. Positions of bridges follow the written chain, without caps; N, C: chain ends. Non-standard residues stand in square brackets, D forms with d. Residues, ends and D or L forms follow the SMILES beside them. *: point of attachment. Palmitoyl = CCCCCCCCCCCCCCCC(=O)*; AEEA = NCCOCCOCC(=O)O

Key:
human CLR/RAMP1 = molecular target: T1, human CLR/RAMP1 (Homo sapiens, UniProt O60894+Q16602); experiment: CLR/RAMP1 receptor-activation assay (DiscoverX cAMP Hunter, HitHunter cAMP XS+); type: cell-based; conditions: for Emax: read-out: CLR/RAMP1 Max Activity
T1 construct: host or cells: 1321N1 cells (cAMP Hunter cell line)
T1 sequence (Q16602 23-461): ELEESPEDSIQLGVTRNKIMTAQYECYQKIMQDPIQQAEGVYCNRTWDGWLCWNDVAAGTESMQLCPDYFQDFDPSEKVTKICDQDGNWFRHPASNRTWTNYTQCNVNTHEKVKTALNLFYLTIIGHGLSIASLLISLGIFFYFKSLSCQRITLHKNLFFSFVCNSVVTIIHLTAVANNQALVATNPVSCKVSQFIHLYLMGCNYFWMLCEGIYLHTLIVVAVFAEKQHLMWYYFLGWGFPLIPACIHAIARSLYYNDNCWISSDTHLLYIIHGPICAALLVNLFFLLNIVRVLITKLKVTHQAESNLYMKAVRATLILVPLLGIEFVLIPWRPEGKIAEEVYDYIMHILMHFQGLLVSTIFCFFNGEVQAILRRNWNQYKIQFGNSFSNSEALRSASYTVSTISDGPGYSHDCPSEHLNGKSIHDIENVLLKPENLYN
T1 sequence (O60894 27-148): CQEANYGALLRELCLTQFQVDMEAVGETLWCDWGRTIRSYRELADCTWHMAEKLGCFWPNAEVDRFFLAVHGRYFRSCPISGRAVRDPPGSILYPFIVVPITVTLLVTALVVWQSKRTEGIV
Protocol: (§1) The bioactivity of peptide analogs was studied using CLR/RAMP1, CLR/RAMP2, and CLR/RAMP3 assays by DiscoveRx (Fremont, CA, USA) in cells that stably express human CLR/RAMP1 (1321N1 cells), CLR/RAMP2 (CHO-K1 cells), or CLR/RAMP3 (CHO-K1 cells). The dose-dependent stimulatory effect of agonists was studied in duplicate, at 10 different concentrations. Determination of the half-maximal effective concentration (EC50) was performed using a 10-point dose-response curves. The starting concentration was 1.0 μM, and it was serially diluted 3-fold, in DMSO.
Cells were seeded in a total volume of 20 μL into 384-well microplates, and the activity was determined using the DiscoverX HitHunter cAMP XS + assay. Before the assay, media was aspirated from cells and replaced with 15 μL 2:1 HBSS/10 mM Hepes: cAMP XS + Ab reagent. Intermediate dilution of samples was performed to generate 4X sample in assay buffer, and 5 μL of the 4X sample was added to cells and incubated at 37°C. Vehicle concentration was 1%.
The chemiluminescent signal was read with a PerkinElmer instrument.

human CLR/RAMP2 = molecular target: T2, human CLR/RAMP2 (Homo sapiens, UniProt O60895+Q16602); experiment: CLR/RAMP2 receptor-activation assay (PathHunter β-Arrestin); type: cell-based; conditions: for Emax: read-out: CLR/RAMP2 Max Activity
T2 construct: host or cells: CHO-K1 cells (PathHunter β-Arrestin cell line)
T2 sequence (Q16602 23-461): as the sequence (Q16602 23-461) above
T2 sequence (O60895 43-175): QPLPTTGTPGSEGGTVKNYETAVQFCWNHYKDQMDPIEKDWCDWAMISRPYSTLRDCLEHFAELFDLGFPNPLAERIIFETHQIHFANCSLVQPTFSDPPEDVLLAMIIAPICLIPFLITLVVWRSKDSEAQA
Protocol: as §1
In this assay, the CLR was fused in frame with a small enzyme donor fragment ProLink™ (PK). The receptor was co-expressed with a fusion protein of β-arrestin and an N-terminal deletion mutant of β-galactosidase (i.e., enzyme acceptor). Activation of the CLR/RAMP2 receptor stimulated the binding of β-arrestin to the PK-tagged receptor and led to an increase in enzyme activities which can then be measured with the PathHunter detection reagents. PathHunter cell lines were seeded in a total volume of 20 μL into 384-well microplates and incubated at 37 °C prior to the assay. Intermediate dilution of samples was performed to generate 5X samples in the assay buffer. A 5 μL aliquot of 5X sample was added to cells and incubated at 37 °C for 90 min. Vehicle concentration was 1%.

[1] = percentage of positive control β-CGRP

Row | SMILES | Emax (human CLR/RAMP1) [%] | Emax (human CLR/RAMP2) [%] | EC50 (human CLR/RAMP1; 1321N1 cells stably expressing human CLR/RAMP1, cAMP read-out, 10-point dose-response in duplicate, start 1.0 μM, 3-fold serial dilution in DMSO) [nM] | Emax (human CLR/RAMP1; [1]) [%] | EC50 (human CLR/RAMP2; CHO-K1 cells stably expressing human CLR/RAMP2, β-arrestin recruitment, 90 min at 37 °C, 10-point dose-response in duplicate, start 1.0 μM, 3-fold dilution in DMSO) [nM] | Emax (human CLR/RAMP2; percentage of positive control ADM1-52) [%]
1 | CCCCCCCCCCCCCCCC(=O)NCCCC[C@H](NC(=O)COCCOCCN)C(=O)NCC(=O)N[C@H]1CSSC[C@@H](C(=O)N[C@H](C(=O)N[C@H](C(=O)N[C@@H](CCC(N)=O)C(=O)N[C@@H](CCCCN)C(=O)N[C@@H](CC(C)C)C(=O)N[C@@H](C)C(=O)N[C@@H](Cc2c[nH]cn2)C(=O)N[C@@H](CCC(N)=O)C(=O)N[C@H](C(=O)N[C@@H](Cc2ccc(O)cc2)C(=O)N[C@@H](CCC(N)=O)C(=O)N[C@@H](Cc2ccccc2)C(=O)N[C@H](C(=O)N[C@@H](CC(=O)O)C(=O)N[C@@H](CCCCN)C(=O)N[C@@H](CC(=O)O)C(=O)N[C@@H](CO)C(=O)N[C@@H](C)C(=O)N2CCC[C@H]2C(=O)N[C@H](C(=O)N[C@@H](CC(=O)O)C(=O)N2CCC[C@H]2C(=O)N[C@@H](CO)C(=O)N[C@@H](CO)C(=O)N2CCC[C@H]2C(=O)N[C@@H](Cc2c[nH]cn2)C(=O)N[C@@H](CO)C(=O)N[C@@H](Cc2ccc(O)cc2)C(N)=O)C(C)C)[C@@H](C)O)[C@@H](C)CC)C(C)C)[C@@H](C)O)NC(=O)[C@H]([C@@H](C)O)NC(=O)CNC(=O)[C@H](Cc2ccccc2)NC(=O)[C@H](CCCNC(=N)N)NC1=O [Analog D-1] (H-[AEEA]K(Palmitoyl)GCRFGTCTVQKLAHQIYQFTDKDSAPVDPSSPHSY-NH2; disulfide 4-9) | 78 | 77 |  |  |  | 
2 | CCCCCCCCCCCCCCCC(=O)NCCCC[C@H](NC(=O)COCCOCCN)C(=O)NCC(=O)N[C@H]1CSSC[C@@H](C(=O)N[C@H](C(=O)N[C@H](C(=O)N[C@@H](CCC(N)=O)C(=O)N[C@@H](CCCCN)C(=O)N[C@@H](CC(C)C)C(=O)N[C@@H](C)C(=O)N[C@@H](Cc2c[nH]cn2)C(=O)N[C@@H](CCC(N)=O)C(=O)N[C@H](C(=O)N[C@@H](Cc2ccc(O)cc2)C(=O)N[C@@H](CCC(N)=O)C(=O)N[C@@H](Cc2ccccc2)C(=O)N[C@H](C(=O)N[C@@H](CC(=O)O)C(=O)N[C@@H](CCCCN)C(=O)N[C@@H](CC(=O)O)C(=O)N[C@@H](CCCCN)C(=O)N[C@@H](CC(=O)O)C(=O)N[C@@H](CC(N)=O)C(=O)N[C@H](C(=O)N[C@@H](CC(=O)O)C(=O)N2CCC[C@H]2C(=O)N[C@@H](CO)C(=O)N[C@@H](CO)C(=O)N2CCC[C@H]2C(=O)N[C@@H](Cc2c[nH]cn2)C(=O)N[C@@H](CO)C(=O)N[C@@H](Cc2ccc(O)cc2)C(N)=O)C(C)C)[C@@H](C)O)[C@@H](C)CC)C(C)C)[C@@H](C)O)NC(=O)[C@H]([C@@H](C)O)NC(=O)CNC(=O)[C@H](Cc2ccccc2)NC(=O)[C@H](CCCNC(=N)N)NC1=O [Analog D-4] | 67 | 82 |  |  |  | 
3 | CCCCCCCCCCCCCCCC(=O)NCCCC[C@H](NC(=O)COCCOCCN)C(=O)NCC(=O)N[C@H]1CSSC[C@@H](C(=O)N[C@H](C(=O)N[C@H](C(=O)N[C@@H](CCC(N)=O)C(=O)N[C@@H](CCCCN)C(=O)N[C@@H](CC(C)C)C(=O)N[C@@H](C)C(=O)N[C@@H](Cc2c[nH]cn2)C(=O)N[C@@H](CCC(N)=O)C(=O)N[C@H](C(=O)N[C@@H](Cc2ccc(O)cc2)C(=O)N[C@@H](CCC(N)=O)C(=O)N[C@@H](Cc2ccccc2)C(=O)N[C@H](C(=O)N[C@@H](CC(=O)O)C(=O)N[C@@H](CCCCN)C(=O)N[C@@H](CC(=O)O)C(=O)N[C@H](C(=O)N[C@@H](C)C(=O)N2CCC[C@H]2C(=O)N[C@@H](CCCNC(=N)N)C(=O)N[C@@H](CO)C(=O)N[C@@H](CCCCN)C(=O)N[C@H](C(=O)N[C@@H](CO)C(=O)N2CCC[C@H]2C(=O)N[C@@H](CCC(N)=O)C(=O)NCC(=O)N[C@@H](Cc2ccc(O)cc2)C(N)=O)[C@@H](C)CC)C(C)C)[C@@H](C)O)[C@@H](C)CC)C(C)C)[C@@H](C)O)NC(=O)[C@H]([C@@H](C)O)NC(=O)CNC(=O)[C@H](Cc2ccccc2)NC(=O)[C@H](CCCNC(=N)N)NC1=O [Analog D-6] | 56 | 74 |  |  |  | 
4 | CCCCCCCCCCCCCCCC(=O)NCCCC[C@H](NC(=O)[C@@H](N)[C@@H](C)O)C(=O)N[C@@H](CCCCN)C(=O)N[C@H](C(=O)N[C@@H](CC(C)C)C(=O)N[C@@H](CCCNC(=N)N)C(=O)N[C@H](C(=O)NCC(=O)N[C@H]1CSSC[C@@H](C(=O)N[C@H](C(=O)N[C@H](C(=O)N[C@@H](CCC(N)=O)C(=O)N[C@@H](CCCCN)C(=O)N[C@@H](CC(C)C)C(=O)N[C@@H](C)C(=O)N[C@@H](Cc2c[nH]cn2)C(=O)N[C@@H](CCC(N)=O)C(=O)N[C@H](C(=O)N[C@@H](Cc2ccc(O)cc2)C(=O)N[C@@H](CCC(N)=O)C(=O)N[C@@H](Cc2ccccc2)C(=O)N[C@H](C(=O)N[C@@H](CC(=O)O)C(=O)N[C@@H](CCCCN)C(=O)N[C@@H](CC(=O)O)C(=O)N[C@@H](CCCCN)C(=O)N[C@@H](CC(=O)O)C(=O)N[C@@H](CC(N)=O)C(=O)N[C@@H](CO)C(=O)N[C@@H](C)C(=O)N2CCC[C@H]2C(=O)N[C@H](C(=O)N[C@@H](CC(=O)O)C(=O)N2CCC[C@H]2C(=O)N[C@@H](CO)C(=O)N[C@@H](CO)C(=O)N2CCC[C@H]2C(=O)N[C@@H](Cc2c[nH]cn2)C(=O)N[C@@H](CO)C(=O)N[C@@H](Cc2ccc(O)cc2)C(N)=O)C(C)C)[C@@H](C)O)[C@@H](C)CC)C(C)C)[C@@H](C)O)NC(=O)[C@H]([C@@H](C)O)NC(=O)CNC(=O)[C@H](Cc2ccccc2)NC(=O)[C@H](CCCNC(=N)N)NC1=O)[C@@H](C)O)[C@@H](C)O [Analog C-4] |  |  | 0.2 | 82 | 0.5 | 86
5 | CCCCCCCCCCCCCCCC(=O)NCCCC[C@H](NC(=O)COCCOCCN)C(=O)NCC(=O)N[C@H]1CSSC[C@@H](C(=O)N[C@H](C(=O)N[C@H](C(=O)N[C@@H](CCC(N)=O)C(=O)N[C@@H](CCCCN)C(=O)N[C@@H](CC(C)C)C(=O)N[C@@H](C)C(=O)N[C@@H](Cc2c[nH]cn2)C(=O)N[C@@H](CCC(N)=O)C(=O)N[C@H](C(=O)N[C@@H](Cc2ccc(O)cc2)C(=O)N[C@@H](CCC(N)=O)C(=O)N[C@@H](Cc2ccccc2)C(=O)N[C@H](C(=O)N[C@@H](CC(=O)O)C(=O)N[C@@H](CCCCN)C(=O)N[C@@H](CC(=O)O)C(=O)N[C@@H](CCCCN)C(=O)N[C@@H](CC(=O)O)C(=O)N[C@@H](CC(N)=O)C(=O)N[C@H](C(=O)N[C@@H](C)C(=O)N2CCC[C@H]2C(=O)N[C@@H](CCCNC(=N)N)C(=O)N[C@@H](CO)C(=O)N[C@@H](CCCCN)C(=O)N[C@H](C(=O)N[C@@H](CO)C(=O)N2CCC[C@H]2C(=O)N[C@@H](CCC(N)=O)C(=O)NCC(=O)N[C@@H](Cc2ccc(O)cc2)C(N)=O)[C@@H](C)CC)C(C)C)[C@@H](C)O)[C@@H](C)CC)C(C)C)[C@@H](C)O)NC(=O)[C@H]([C@@H](C)O)NC(=O)CNC(=O)[C@H](Cc2ccccc2)NC(=O)[C@H](CCCNC(=N)N)NC1=O [Analog C-7] | 70 | 147 |  |  |  | 
6 | CSCC[C@H](NC(=O)CNC(=O)CNC(=O)[C@H](CO)NC(=O)[C@H](CCCNC(=N)N)NC(=O)[C@H](CO)NC(=O)[C@H](CC(C)C)NC(=O)[C@H](CC(C)C)NC(=O)CNC(=O)[C@H](C)NC(=O)[C@H](CC(C)C)NC(=O)[C@H](CCCNC(=N)N)NC(=O)[C@H](Cc1c[nH]cn1)NC(=O)[C@@H](NC(=O)[C@@H](NC(=O)[C@@H]1CSSC[C@H](NC(=O)[C@H](C)N)C(=O)N[C@@H](CC(N)=O)C(=O)N[C@@H]([C@@H](C)O)C(=O)N[C@@H](C)C(=O)N[C@@H]([C@@H](C)O)C(=O)N1)C(C)C)[C@@H](C)O)C(=O)N[C@H](C(=O)N[C@@H](CCCCN)C(=O)N[C@@H](CO)C(=O)N[C@@H](CC(N)=O)C(=O)N[C@@H](Cc1ccccc1)C(=O)N[C@H](C(=O)N1CCC[C@H]1C(=O)N[C@H](C(=O)N[C@@H](CC(N)=O)C(=O)N[C@H](C(=O)NCC(=O)N[C@@H](CO)C(=O)N[C@@H](CCCCN)C(=O)N[C@@H](C)C(=O)N[C@@H](Cc1ccccc1)C(N)=O)C(C)C)[C@@H](C)O)C(C)C)C(C)C [CGRP, calcitonin gene-related peptide, reference compound] |  |  |  | 103 |  | 
